Experimental data as given in patent US20180000744A1, “NANOENCAPSULATED COMPOSITIONS” (Georgia Southern Research and Service Foundation, Inc., priority 2016, published 2018).

System: Human prostatic cancer cell PC3
Experiment: In vitro cytotoxicity / biocompatibility test, MTS assay
Format: cell-based
Details: 5 μM initial drug concentration in the media, 48 hours
Method: Human prostatic cancer cell PC3 were used to test the biocompatibility and cytotoxicity of FU loaded PCL nanofibers. Human prostatic cancer cell derived from metastatic site (bone) was purchased from ATCC, USA. 57 ml of fetal bovine serum (USA origin purchased from Sigma Aldrich), 7 ml of Penicillin-Streptomycin (Life Technologies) and 6 ml of HEPES (Life Technologies) was added to 500 ml RPMI-1640 medium (Fisher Scientific). This media is called R+ media. 96 well plate were used to grow PC3 cells (sterile and flat bottom type purchased from fisher scientific). 100 μL of PC3 cells at 8×10^4 cells/ml were added on each wells of 96 well plate for all tests. PC3 cells were incubated at 37° C. in a humidified 5% CO2 atmosphere for 24 hours before performing any test. […]
The cytotoxicity of NFs set A and D was assessed. […]
96 well plates were incubated at 37° C. in a humidified, 5% CO2 atmosphere for 48 hours to give sufficient time for the fluorouracil to inhibit essential biosynthetic process of the PC3 cells and thus cause cell death. […] Well plates were kept again in CO2 incubator for 3 hours and then their absorbance were measured at 490 nm using UV-Vis spectrometer. Absorbance of cells with different concentration of drug was compared with the absorbance of PC3 cells with no drug to determine the cell viability. […]

O=c1[nH]cc(F)c(=O)[nH]1 [pristine FU, 5-Fluorouracil]
alive cells: 43%
